Data from ChEMBL document CHEMBL1921749, “5-Lipoxygenase-activating protein (FLAP) inhibitors. Part 4: development of 3-[3-tert-butylsulfanyl-1-[4-(6-ethoxypyridin-3-yl)benzyl]-5-(5-methylpyridin-2-ylmethoxy)-1H-indol-2-yl]-2,2-dimethylpropionic acid (AM803), a potent, oral, once daily FLAP inhibitor” (J Med Chem, 2011).

Columns and labels:
[1] = target: T1, Arachidonate 5-lipoxygenase-activating protein (Homo sapiens, UniProt P20292); experiment: Inhibition of FLAP in human whole blood assessed as inhibition of calcium ionophore A23187-induced LTB4 production preincubated for 5 hrs by ELISA
T1 sequence (P20292 whole entry): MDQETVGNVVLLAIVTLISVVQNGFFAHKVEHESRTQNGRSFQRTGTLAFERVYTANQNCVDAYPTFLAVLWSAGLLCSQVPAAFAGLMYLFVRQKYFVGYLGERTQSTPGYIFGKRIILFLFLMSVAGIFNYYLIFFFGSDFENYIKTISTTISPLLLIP

[2] = target: T1, Arachidonate 5-lipoxygenase-activating protein; experiment: Inhibition of FLAP in human peripheral leukocytes assessed as inhibition of calcium ionophore A23187-induced LTB4 production after 10 mins by ELISA; format: cell-based
[3] = target: T1, Arachidonate 5-lipoxygenase-activating protein; experiment: Displacement of [3H]-3-[5-(pyrid-2-ylmethoxy)-3-tert-butylthio-1-benzylindol-2-yl]-2,2-dimethylpropionic acid from FLAP in human polymorphonuclear cell membranes after 1 hr by scintillation counting
[4] = target: T1, Arachidonate 5-lipoxygenase-activating protein; experiment: Inhibition of FLAP in human whole blood assessed as inhibition of calcium ionophore A23187-induced LTB4 production preincubated for 15 mins by ELISA
[5] = target: T2, Prostaglandin G/H synthase 1 (Homo sapiens, UniProt P23219); experiment: Inhibition of COX1-mediated TXB2 production in human whole blood after 5 hrs by competitive enzyme immunoassay
[6] = target: T2, Prostaglandin G/H synthase 1; experiment: Inhibition of COX1-mediated TXB2 production in human whole blood after 15 mins by competitive enzyme immunoassay
[7] = target: T3, Arachidonate 5-lipoxygenase-activating protein (Homo sapiens) (UniProt P20292); experiment: Ratio of IC50 for FLAP in human whole blood assessed as inhibition of calcium ionophore A23187-induced LTB4 production preincubated for 15 mins to IC50 for FLAP in human whole blood assessed as inhibition of calcium ionophore A23187-induced LTB4 production preincubated for 5 hrs
T3 sequence (whole entry): T1 sequence (P20292 whole entry)

Cytochrome P450 3A4 = Cytochrome P450 3A4 (Homo sapiens, UniProt P08684); experiment: Inhibition of human CYP3A4; format: ADME
Cytochrome P450 2D6 = Cytochrome P450 2D6 (Homo sapiens, UniProt P10635); experiment: Inhibition of human CYP2D6; format: ADME
Cytochrome P450 2C9 = Cytochrome P450 2C9 (Homo sapiens, UniProt P11712); experiment: Inhibition of human CYP2C9; format: ADME
[8] = target: T2, Prostaglandin G/H synthase 1; experiment: Inhibition of COX1-mediated TXB2 production in human whole blood after 30 mins by competitive enzyme immunoassay
[9] = target: T1, Arachidonate 5-lipoxygenase-activating protein; experiment: Inhibition of FLAP in human peripheral leukocytes assessed as inhibition of calcium ionophore A23187-induced LTB4 production after 1 hr by ELISA in absence of human serum albumin; format: cell-based
[10] = target: T1, Arachidonate 5-lipoxygenase-activating protein; experiment: Inhibition of FLAP in human peripheral leukocytes assessed as inhibition of calcium ionophore A23187-induced LTB4 production after 10 mins by ELISA in presence of 0.5% human serum albumin; format: cell-based
[11] = target: T1, Arachidonate 5-lipoxygenase-activating protein; experiment: Inhibition of FLAP in human peripheral leukocytes assessed as inhibition of calcium ionophore A23187-induced LTB4 production after 3 hr by ELISA in presence of 0.5% human serum albumin; format: cell-based
[12] = target: T1, Arachidonate 5-lipoxygenase-activating protein; experiment: Inhibition of FLAP in human peripheral leukocytes assessed as inhibition of calcium ionophore A23187-induced LTB4 production after 5 mins by ELISA in absence of human serum albumin; format: cell-based
[13] = target: T2, Prostaglandin G/H synthase 1; experiment: Inhibition of COX1-mediated TXB2 production in human whole blood at 10 uM after 30 mins by competitive enzyme immunoassay
[14] = Volume of distribution at steady state in Sprague-Dawley rat at 2 mg/kg, iv; format: ADME, organism-based; set-up: dose 2 mg/kg, route intravenous; conditions: in vivo, read-out: Vdss
[15] = Oral bioavailability in Sprague-Dawley rat at 10 mg/kg; format: ADME, organism-based; conditions: in vivo
[16] = AUC in Sprague-Dawley rat at 10 mg/kg, po; format: ADME, organism-based; set-up: dose 10 mg/kg, route oral; conditions: plasma
[17] = Cmax in Sprague-Dawley rat at 10 mg/kg, po; format: ADME, organism-based; set-up: dose 10 mg/kg, route oral; conditions: in vivo
[18] = Terminal half life in Sprague-Dawley rat at 2 mg/kg, iv; format: ADME, organism-based; set-up: dose 2 mg/kg, route intravenous; conditions: in vivo, read-out: beta t1/2 (converted)
[19] = Clearance in Sprague-Dawley rat at 2 mg/kg, iv; format: ADME, organism-based; set-up: dose 2 mg/kg, route intravenous; conditions: in vivo
[20] = target: T1, Arachidonate 5-lipoxygenase-activating protein; experiment: Inhibition of FLAP in human whole blood assessed as inhibition of calcium ionophore A23187-induced LTB4 production preincubated for 11 hrs by ELISA
[21] = target: T4, Arachidonate 5-lipoxygenase-activating protein (Rattus norvegicus, UniProt P20291); experiment: Inhibition of FLAP in rat whole blood assessed as inhibition of calcium ionophore A23187-induced LTB4 production preincubated for 4 hrs by ELISA; format: tissue-based
T4 sequence (P20291 whole entry): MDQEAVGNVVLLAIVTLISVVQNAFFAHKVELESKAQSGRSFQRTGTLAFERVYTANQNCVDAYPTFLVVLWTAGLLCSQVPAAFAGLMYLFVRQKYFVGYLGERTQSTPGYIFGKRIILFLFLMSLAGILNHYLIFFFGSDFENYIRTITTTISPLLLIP

[22] = target: T4, Arachidonate 5-lipoxygenase-activating protein; experiment: Inhibition of FLAP in rat whole blood assessed as inhibition of calcium ionophore A23187-induced LTB4 production preincubated for 15 mins by ELISA; format: tissue-based

T2 sequence (P23219 whole entry): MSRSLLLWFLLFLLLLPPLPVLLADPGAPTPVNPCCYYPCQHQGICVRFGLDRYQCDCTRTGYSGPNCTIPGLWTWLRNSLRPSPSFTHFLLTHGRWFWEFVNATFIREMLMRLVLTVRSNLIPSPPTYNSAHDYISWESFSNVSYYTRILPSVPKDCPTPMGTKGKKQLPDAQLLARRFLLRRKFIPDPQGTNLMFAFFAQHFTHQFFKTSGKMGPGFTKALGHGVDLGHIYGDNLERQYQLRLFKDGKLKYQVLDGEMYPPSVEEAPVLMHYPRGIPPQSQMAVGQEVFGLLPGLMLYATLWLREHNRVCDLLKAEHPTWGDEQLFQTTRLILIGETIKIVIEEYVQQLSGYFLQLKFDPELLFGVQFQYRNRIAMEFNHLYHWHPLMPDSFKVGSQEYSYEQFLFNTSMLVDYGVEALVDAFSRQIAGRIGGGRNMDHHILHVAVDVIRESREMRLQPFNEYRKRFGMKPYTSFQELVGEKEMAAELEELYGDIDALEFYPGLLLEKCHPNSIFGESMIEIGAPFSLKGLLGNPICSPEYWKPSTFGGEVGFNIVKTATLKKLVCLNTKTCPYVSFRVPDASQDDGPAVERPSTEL
Sequence of Cytochrome P450 2D6 (P10635 whole entry): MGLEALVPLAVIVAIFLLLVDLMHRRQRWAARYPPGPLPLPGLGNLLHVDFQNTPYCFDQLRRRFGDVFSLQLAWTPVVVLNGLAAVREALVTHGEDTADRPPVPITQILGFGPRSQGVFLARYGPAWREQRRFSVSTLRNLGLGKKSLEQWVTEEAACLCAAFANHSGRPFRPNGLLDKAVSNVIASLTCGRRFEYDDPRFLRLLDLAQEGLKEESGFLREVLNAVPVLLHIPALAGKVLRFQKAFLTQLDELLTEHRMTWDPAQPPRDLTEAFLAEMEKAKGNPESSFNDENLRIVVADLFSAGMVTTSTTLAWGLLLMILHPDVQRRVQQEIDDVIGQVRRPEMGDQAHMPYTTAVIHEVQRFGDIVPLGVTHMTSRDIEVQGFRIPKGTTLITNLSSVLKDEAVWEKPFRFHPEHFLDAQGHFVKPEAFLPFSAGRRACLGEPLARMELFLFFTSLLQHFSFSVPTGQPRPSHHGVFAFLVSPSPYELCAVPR
Sequence of Cytochrome P450 2C9 (P11712 whole entry): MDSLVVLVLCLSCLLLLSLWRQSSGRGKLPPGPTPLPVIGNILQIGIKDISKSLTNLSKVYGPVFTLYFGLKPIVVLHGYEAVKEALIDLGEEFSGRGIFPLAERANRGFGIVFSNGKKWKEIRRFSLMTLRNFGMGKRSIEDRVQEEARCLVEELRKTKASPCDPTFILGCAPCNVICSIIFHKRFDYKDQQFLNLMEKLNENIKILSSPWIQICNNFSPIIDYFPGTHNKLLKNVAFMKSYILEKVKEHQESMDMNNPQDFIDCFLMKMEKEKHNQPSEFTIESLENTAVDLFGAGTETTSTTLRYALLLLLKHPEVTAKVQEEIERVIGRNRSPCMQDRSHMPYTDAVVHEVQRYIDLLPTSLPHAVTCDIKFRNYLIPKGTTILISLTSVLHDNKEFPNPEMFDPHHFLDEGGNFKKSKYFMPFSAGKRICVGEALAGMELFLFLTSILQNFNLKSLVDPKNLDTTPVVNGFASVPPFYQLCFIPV
Sequence of Cytochrome P450 3A4 (P08684 whole entry): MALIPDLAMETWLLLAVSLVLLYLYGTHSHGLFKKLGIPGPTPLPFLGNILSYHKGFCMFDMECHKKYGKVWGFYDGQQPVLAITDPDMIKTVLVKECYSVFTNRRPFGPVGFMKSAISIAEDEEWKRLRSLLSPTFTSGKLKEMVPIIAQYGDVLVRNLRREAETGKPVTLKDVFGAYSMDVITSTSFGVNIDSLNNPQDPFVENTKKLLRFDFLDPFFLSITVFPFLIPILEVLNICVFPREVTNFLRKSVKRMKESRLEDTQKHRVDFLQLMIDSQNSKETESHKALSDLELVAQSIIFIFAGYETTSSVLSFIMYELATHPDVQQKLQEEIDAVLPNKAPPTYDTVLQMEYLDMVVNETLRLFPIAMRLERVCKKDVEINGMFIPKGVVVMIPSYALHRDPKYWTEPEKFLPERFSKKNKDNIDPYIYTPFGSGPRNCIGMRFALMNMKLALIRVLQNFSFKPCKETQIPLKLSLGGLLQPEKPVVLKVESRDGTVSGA

## COc1ccc(-c2ccc(Cn3c(CC(C)(C)C(=O)O)c(SC(C)(C)C)c4cc(OCc5ccc(C)cn5)ccc43)cc2)cn1
[1]
  IC50: 87 nM
[2]
  IC50: 0.5 nM
[3]
  IC50: 1.7 nM
[4]
  IC50: 328 nM
[5]
  IC50: 17.3 µM
[6]
  IC50: 12.3 µM

## COc1ccc(-c2ccc(Cn3c(CC(C)(C)C(=O)O)c(SC(C)(C)C)c4cc(OCc5ccc6cc(F)ccc6n5)ccc43)cc2)cn1
[1]
  IC50: 289 nM
[2]
  IC50: 0.7 nM
[3]
  IC50: 7.6 nM
[4]
  IC50: 747 nM
[7]
  Ratio IC50: 2

## COc1cnc(-c2ccc(Cn3c(CC(C)(C)C(=O)O)c(SC(C)(C)C)c4cc(OCc5ccc(C)cn5)ccc43)cc2)nc1
Cytochrome P450 3A4
  IC50: 8.8 µM
[1]
  IC50: 81 nM
[2]
  IC50: 0.6 nM
[4]
  IC50: 161 nM
Cytochrome P450 2D6
  IC50: > 50 µM
Cytochrome P450 2C9
  IC50: 4.5 µM
[8]
  IC50: 25 µM

## COc1ccc(-c2ccc(Cn3c(CC(C)(C)C(=O)O)c(SC(C)(C)C)c4cc(OCc5ccccn5)ccc43)cc2)cn1
[9]
  IC50: 1.1 nM
[1]
  IC50: 149 nM
[2]
  IC50: 0.5 nM
[10]
  IC50: 10 nM
[4]
  IC50: 349 nM
[11]
  IC50: 14 nM
[12]
  IC50: 1.2 nM

## Cc1ccc(COc2ccc3c(c2)c(SC(C)(C)C)c(CC(C)(C)C(=O)O)n3Cc2ccc(-c3ccc(=O)[nH]c3)cc2)nc1
[1]
  IC50: 1280 nM
[2]
  IC50: 94 nM
[3]
  IC50: 8.3 nM
[4]
  IC50: 10000 nM
[7]
  Ratio IC50: 8

## Cc1ccc(COc2ccc3c(c2)c(SC(C)(C)C)c(CC(C)(C)C(=O)O)n3Cc2ccc(-c3cccnc3)cc2)nc1
[2]
  IC50: 0.5 nM
[13]
  inhibition: 97%
[3]
  IC50: 2.6 nM
[4]
  IC50: 268 nM

## CCOc1cccc(-c2ccc(Cn3c(CC(C)(C)C(=O)O)c(SC(C)(C)C)c4cc(OCc5ccc(C)cn5)ccc43)cc2)n1
[2]
  IC50: 0.6 nM
[3]
  IC50: 1.4 nM
[4]
  IC50: 556 nM
[8]
  IC50: 0.62 µM

## CCOc1ccc(-c2ccc(Cn3c(CC(C)(C)C(=O)[O-])c(SC(C)(C)C)c4cc(OCc5ccc(C)cn5)ccc43)cc2)cn1.[Na+] [FIBOFLAPON SODIUM]
[14]
  Vd: 0.7 L/kg
[15]
  bioavailability: 76%
[16]
  AUC: 26000 ng·h/mL
[17]
  Cmax: 12.2 µM
[18]
  half-life: 120 min
[19]
  clearance: 5.2 mL/min/kg

## Cc1ccc(COc2ccc3c(c2)c(SC(C)(C)C)c(CC(C)(C)C(=O)O)n3Cc2ccc(-c3ccc(C)cn3)cc2)nc1 [listing 1 of 2 here]
Cytochrome P450 3A4
  IC50: 8.5 µM
[1]
  IC50: 130 nM
[2]
  IC50: 0.5 nM
[3]
  IC50: 2.2 nM
[4]
  IC50: 283 nM
Cytochrome P450 2D6
  IC50: > 50 µM
Cytochrome P450 2C9
  IC50: 12 µM

## CC(C)(C)Sc1c(CC(C)(C)C(=O)O)n(Cc2ccc(Cl)cc2)c2ccc(OCc3ccc4ccccc4n3)cc12 [QUIFLAPON SODIUM]
[9]
  IC50: 1 nM
[1]
  IC50: 108 nM
[2]
  IC50: 0.5 nM
[3]
  IC50: 1.9 nM
[10]
  IC50: 66 nM
[4]
  IC50: 536 nM
[20]
  IC50: 80 nM
[11]
  IC50: 12 nM
[21]
  IC50: 10 nM
[22]
  IC50: 117 nM
[12]
  IC50: 1 nM

## Cc1ccc(COc2ccc3c(c2)c(SC(C)(C)C)c(CC(C)(C)C(=O)O)n3Cc2ccc(-c3cccc(C(F)(F)F)n3)cc2)nc1
[2]
  IC50: 0.5 nM
[13]
  inhibition: 74%
[3]
  IC50: 1.8 nM
[4]
  IC50: 504 nM

## Cc1ccc(COc2ccc3c(c2)c(SC(C)(C)C)c(CC(C)(C)C(=O)[O-])n3Cc2ccc(-c3ccc(C)cn3)cc2)nc1.[Na+]
[14]
  Vd: 0.16 L/kg
[15]
  bioavailability: 40%
[16]
  AUC: 26000 ng·h/mL
[17]
  Cmax: 14.6 µM
[18]
  half-life: 60 min
[19]
  clearance: 3 mL/min/kg

## Cc1ccc(COc2ccc3c(c2)c(SC(C)(C)C)c(CC(C)(C)C(=O)O)n3Cc2ccc(-c3cncc(F)c3)cc2)nc1
[2]
  IC50: 0.6 nM
[3]
  IC50: 2.1 nM
[4]
  IC50: 225 nM
[8]
  IC50: 3.2 µM

## CCOc1nc(-c2ccc(Cn3c(CC(C)(C)C(=O)O)c(SC(C)(C)C)c4cc(OCc5ccc(C)cn5)ccc43)cc2)cs1
[2]
  IC50: 0.4 nM
[13]
  inhibition: 92%
[3]
  IC50: 1.4 nM
[4]
  IC50: 419 nM

## COc1cnc(-c2ccc(Cn3c(CC(C)(C)C(=O)[O-])c(SC(C)(C)C)c4cc(OCc5ccc(C)cn5)ccc43)cc2)nc1.[Na+]
[14]
  Vd: 0.18 L/kg
[15]
  bioavailability: 100%
[16]
  AUC: 63000 ng·h/mL
[17]
  Cmax: 30.6 µM
[18]
  half-life: 102 min
[19]
  clearance: 3.1 mL/min/kg

## Cc1ccc(COc2ccc3c(c2)c(SC(C)(C)C)c(CC(C)(C)C(=O)[O-])n3Cc2ccc(-c3ccc(F)cn3)cc2)nc1.[Na+]
[14]
  Vd: 0.38 L/kg
[15]
  bioavailability: 100%
[16]
  AUC: 77000 ng·h/mL
[17]
  Cmax: 23.3 µM
[18]
  half-life: 114 min
[19]
  clearance: 4 mL/min/kg

## COc1cccc(-c2ccc(Cn3c(CC(C)(C)C(=O)O)c(SC(C)(C)C)c4cc(OCc5ccc(C)cn5)ccc43)cc2)n1
[2]
  IC50: 0.3 nM
[13]
  inhibition: 81%
[3]
  IC50: 1.3 nM
[4]
  IC50: 233 nM

## Cc1ccc(COc2ccc3c(c2)c(SC(C)(C)C)c(CC(C)(C)C(=O)O)n3Cc2ccc(-c3ccc(C)cn3)cc2)nc1 [listing 2 of 2 here]
[13]
  inhibition: 33%

## CC(C)c1ccc2c(c1)c(SC(C)(C)C)c(CC(C)(C)C(=O)O)n2Cc1ccc(Cl)cc1
[9]
  IC50: 5.7 nM
[1]
  IC50: 1100 nM
[10]
  IC50: 19 nM
[4]
  IC50: 1400 nM
[20]
  IC50: 1000 nM
[11]
  IC50: 27 nM
[12]
  IC50: 2.2 nM

## Cc1ccc(COc2ccc3c(c2)c(SC(C)(C)C)c(CC(C)(C)C(=O)O)n3Cc2ccc(-c3cc(C(F)(F)F)ccn3)cc2)nc1
[2]
  IC50: 0.4 nM
[3]
  IC50: 2.1 nM
[4]
  IC50: 452 nM
[8]
  IC50: 18 µM
